Experimental data: PubChem BioAssay (NCI)
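Test compounds were applied to cells in 96-well plates for 48 hours at 5 doses. TGI is the concentration that stops growth completely.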

Assays:
Test in all cases: inhibition of tumour cell growth, NCI panel, 48 h
NCI-H23 lung = test system: NCI-H23 lung
OVCAR-3 ovarian = test system: OVCAR-3 ovarian
HOP-92 NSCLC = test system: HOP-92 NSCLC
HL-60(TB) leukemia = test system: HL-60(TB) leukemia
M19-MEL melanoma = test system: M19-MEL melanoma
HCT-116 colon = test system: HCT-116 colon
SF-295 CNS = test system: SF-295 CNS
OVCAR-4 ovarian = test system: OVCAR-4 ovarian
HOP-62 NSCLC = test system: HOP-62 NSCLC
RXF-631 renal = test system: RXF-631 renal
786-0 renal = test system: 786-0 renal
SW-620 colon = test system: SW-620 colon
NCI-H522 lung = test system: NCI-H522 lung
DMS 273 small cell lung = test system: DMS 273 small cell lung
SF-268 CNS = test system: SF-268 CNS
DMS 114 small cell lung = test system: DMS 114 small cell lung
SR leukemia = test system: SR leukemia
SK-OV-3 ovarian = test system: SK-OV-3 ovarian
HT29 colon = test system: HT29 colon
RPMI-8226 leukemia = test system: RPMI-8226 leukemia
M14 melanoma = test system: M14 melanoma
SNB-19 CNS = test system: SNB-19 CNS
UACC-62 melanoma = test system: UACC-62 melanoma
KM12 colon = test system: KM12 colon
NCI-H226 lung = test system: NCI-H226 lung
UACC-257 melanoma = test system: UACC-257 melanoma
HCC-2998 colon = test system: HCC-2998 colon
SN12C renal = test system: SN12C renal
CCRF-CEM leukemia = test system: CCRF-CEM leukemia
SNB-75 CNS = test system: SNB-75 CNS
COLO 205 colon = test system: COLO 205 colon
MALME-3M melanoma = test system: MALME-3M melanoma
K-562 leukemia = test system: K-562 leukemia
SK-MEL-2 melanoma = test system: SK-MEL-2 melanoma
XF 498 CNS = test system: XF 498 CNS
DLD-1 colon = test system: DLD-1 colon
TK-10 renal = test system: TK-10 renal
CAKI-1 renal = test system: CAKI-1 renal
SNB-78 CNS = test system: SNB-78 CNS
UO-31 renal = test system: UO-31 renal
A498 renal = test system: A498 renal
SF-539 CNS = test system: SF-539 CNS
OVCAR-8 ovarian = test system: OVCAR-8 ovarian
IGROV1 ovarian = test system: IGROV1 ovarian
MOLT-4 leukemia = test system: MOLT-4 leukemia
A549 NSCLC = test system: A549 NSCLC
SK-MEL-28 melanoma = test system: SK-MEL-28 melanoma
LXFL 529 NSCLC = test system: LXFL 529 NSCLC
ACHN renal = test system: ACHN renal
OVCAR-5 ovarian = test system: OVCAR-5 ovarian
RXF 393 renal = test system: RXF 393 renal
NCI-H460 lung = test system: NCI-H460 lung
HCT-15 colon = test system: HCT-15 colon
KM20L2 colon = test system: KM20L2 colon
LOX IMVI melanoma = test system: LOX IMVI melanoma
U251 CNS = test system: U251 CNS
HOP-18 NSCLC = test system: HOP-18 NSCLC
SK-MEL-5 melanoma = test system: SK-MEL-5 melanoma
EKVX NSCLC = test system: EKVX NSCLC

## Cn1c2ccccc2c2cc(-c3ccccc3)c3c(c21)C(=O)c1ccccc1C3=O
NCI-H23 lung
  TGI: 22.8 µM
OVCAR-3 ovarian
  TGI: 36.4 µM
HOP-92 NSCLC
  TGI: 26.3 µM
HL-60(TB) leukemia
  TGI: 35.9 µM
M19-MEL melanoma
  TGI: 6.47 µM
HCT-116 colon
  TGI: 36.3 µM
SF-295 CNS
  TGI: 74.4 µM
OVCAR-4 ovarian
  TGI: 34.3 µM
HOP-62 NSCLC
  TGI: > 100 µM
RXF-631 renal
  TGI: > 100 µM
786-0 renal
  TGI: 35.7 µM
SW-620 colon
  TGI: 66.5 µM
NCI-H522 lung
  TGI: 48.4 µM
DMS 273 small cell lung
  TGI: 44.9 µM
SF-268 CNS
  TGI: 91.8 µM
DMS 114 small cell lung
  TGI: 33.6 µM
SR leukemia
  TGI: 31.4 µM
SK-OV-3 ovarian
  TGI: > 100 µM
HT29 colon
  TGI: > 100 µM
RPMI-8226 leukemia
  TGI: 25.3 µM
M14 melanoma
  TGI: 33.4 µM
SNB-19 CNS
  TGI: > 100 µM
UACC-62 melanoma
  TGI: 30.1 µM
KM12 colon
  TGI: 75.8 µM
NCI-H226 lung
  TGI: 84 µM
UACC-257 melanoma
  TGI: 42.9 µM
HCC-2998 colon
  TGI: > 100 µM
SN12C renal
  TGI: > 100 µM
CCRF-CEM leukemia
  TGI: 33 µM
SNB-75 CNS
  TGI: > 100 µM
COLO 205 colon
  TGI: 94.3 µM
MALME-3M melanoma
  TGI: 49.6 µM
K-562 leukemia
  TGI: 73.1 µM
SK-MEL-2 melanoma
  TGI: 43.4 µM
XF 498 CNS
  TGI: 39.7 µM
DLD-1 colon
  TGI: 31 µM
TK-10 renal
  TGI: > 100 µM
CAKI-1 renal
  TGI: > 100 µM
SNB-78 CNS
  TGI: 54.3 µM
UO-31 renal
  TGI: 35.4 µM
A498 renal
  TGI: > 100 µM
SF-539 CNS
  TGI: 49.2 µM
OVCAR-8 ovarian
  TGI: 68.1 µM
IGROV1 ovarian
  TGI: 58.5 µM
MOLT-4 leukemia
  TGI: 92.7 µM
A549 NSCLC
  TGI: 79.1 µM
SK-MEL-28 melanoma
  TGI: 37.5 µM
LXFL 529 NSCLC
  TGI: 29.3 µM

## C/C(=N\NC(=S)NC(CCC(=O)O)C(=O)O)c1ccccn1 (stereo not given)
NCI-H23 lung
  TGI: > 100 µM
OVCAR-3 ovarian
  TGI: > 100 µM
ACHN renal
  TGI: > 100 µM
OVCAR-5 ovarian
  TGI: > 100 µM
HOP-92 NSCLC
  TGI: > 100 µM
HL-60(TB) leukemia
  TGI: > 100 µM
M19-MEL melanoma
  TGI: > 100 µM
HCT-116 colon
  TGI: > 100 µM
SF-295 CNS
  TGI: > 100 µM
OVCAR-4 ovarian
  TGI: > 100 µM
HOP-62 NSCLC
  TGI: > 100 µM
RXF-631 renal
  TGI: > 100 µM
786-0 renal
  TGI: > 100 µM
SW-620 colon
  TGI: > 100 µM
NCI-H522 lung
  TGI: > 100 µM
SF-268 CNS
  TGI: > 100 µM
DMS 114 small cell lung
  TGI: > 100 µM
RXF 393 renal
  TGI: > 100 µM
SR leukemia
  TGI: > 100 µM
SK-OV-3 ovarian
  TGI: > 100 µM
HT29 colon
  TGI: > 100 µM
RPMI-8226 leukemia
  TGI: > 100 µM
NCI-H460 lung
  TGI: > 100 µM
HCT-15 colon
  TGI: > 100 µM
M14 melanoma
  TGI: > 100 µM
SNB-19 CNS
  TGI: > 100 µM
UACC-62 melanoma
  TGI: > 100 µM
KM12 colon
  TGI: > 100 µM
NCI-H226 lung
  TGI: > 100 µM
KM20L2 colon
  TGI: > 100 µM
UACC-257 melanoma
  TGI: > 100 µM
HCC-2998 colon
  TGI: > 100 µM
SN12C renal
  TGI: > 100 µM
CCRF-CEM leukemia
  TGI: > 100 µM
SNB-75 CNS
  TGI: > 100 µM
COLO 205 colon
  TGI: > 100 µM
MALME-3M melanoma
  TGI: > 100 µM
K-562 leukemia
  TGI: > 100 µM
LOX IMVI melanoma
  TGI: > 100 µM
SK-MEL-2 melanoma
  TGI: > 100 µM
XF 498 CNS
  TGI: > 100 µM
U251 CNS
  TGI: > 100 µM
DLD-1 colon
  TGI: > 100 µM
TK-10 renal
  TGI: > 100 µM
HOP-18 NSCLC
  TGI: > 100 µM
SK-MEL-5 melanoma
  TGI: > 100 µM
SNB-78 CNS
  TGI: > 100 µM
UO-31 renal
  TGI: > 100 µM
A498 renal
  TGI: > 100 µM
SF-539 CNS
  TGI: > 100 µM
OVCAR-8 ovarian
  TGI: > 100 µM
EKVX NSCLC
  TGI: > 100 µM
IGROV1 ovarian
  TGI: > 100 µM
MOLT-4 leukemia
  TGI: > 100 µM
A549 NSCLC
  TGI: > 100 µM
SK-MEL-28 melanoma
  TGI: > 100 µM
LXFL 529 NSCLC
  TGI: > 100 µM
